US8299056B2 (Signal Pharmaceuticals, LLC, priority 2008, dated 2012)
Where two headings read alike, the source gives them in different places. Blank lines part the entries; values can stand above or below the compound they belong to.

Molecular target: T1, Syk (Homo sapiens, UniProt P43405)
T1 construct: purchased Carna Biosciences
Experiment: Syk HTRF assay
Type: biochemical
How it was run: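 Read-out is the 665 nm/615 nm time-resolved fluorescence ratio after EDTA stop and Eu-anti-phosphotyrosine plus streptavidin-DyLight 647 detection. Reaction ran 1 h at room temperature with start mix of 87.5 μM ATP and 80 nM substrate peptide in pH 7.6 HEPES/MgCl2 buffer.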

[1] = IC50 activity level, read-out: Activity Level
[2] = activity levels A-D, read-out: Activity Level (IC50 in the Syk HTRF assay)
[3] = read-out: Activity Level (Syk HTRF assay IC50)

- IC50 [1]: 1000 to 10000 nM
SMILES: CNC(=O)c1ccc(Nc2nc3cccc(NC4CCOC4)n3n2)cc1 (centres unmarked) [Example 441, N-methyl-4-(5-(tetrahydrofuran-3-ylamino)-[1,2,4]triazolo[1,5-a]pyridin-2-ylamino)benzamide]

- IC50 [2]: 0.005 to 250 nM
SMILES: O[C@H]1CC[C@@H](Nc2cccc3nc(Nc4cnc5[nH]ccc5c4)nn23)CC1 [Example 297, cis-4-(2-(1H-pyrrolo[2,3-b]pyridin-5-ylamino)-[1,2,4]triazolo[1,5-a]pyridin-5-ylamino)cyclohexanol]

- IC50 [3]: 0.005 to 250 nM
SMILES: Oc1cccc(-c2cccc3nc(Nc4ccc(-c5ncc[nH]5)cc4)nn23)c1 [compound 16, 3-(2-(4-(1H-imidazol-2-yl)phenylamino)-[1,2,4]triazolo[1,5-a]pyridin-5-yl)phenol]

- IC50 [1]: 0.005 to 250 nM
SMILES: O[C@H]1CC[C@@H](Nc2cccc3nc(Nc4cnc5cn[nH]c5c4)nn23)CC1 [Example 553, cis-4-(2-(1H-pyrazolo-[4,3-b]pyridin-6-ylamino)-[1,2,4]triazolo[1,5-a]pyridin-5-ylamino)cyclohexanol]

- IC50 [3]: 1000 to 10000 nM
SMILES: CC(=O)Nc1cccc(-c2cccc3nc(Nc4ccccc4)nn23)c1 [compound 78, N-(3-(2-(phenylamino)-[1,2,4]triazolo[1,5-a]pyridin-5-yl)phenyl)acetamide]

- IC50 [3]: 0.005 to 250 nM
SMILES: CN1CCC(NC(=O)c2ccc(Nc3nc4cccc(-c5cccc(O)c5)n4n3)cc2)CC1 [compound 34, 4-(5-(3-hydroxyphenyl)-[1,2,4]triazolo[1,5-a]pyridin-2-ylamino)-N-(1-methylpiperidin-4-yl)benzamide]

- IC50 [1]: 500 to 1000 nM
SMILES: c1ccc(Nc2nc3cccc(-c4ccc5[nH]ncc5c4)n3n2)cc1 [Example 522, 5-(1H-indazol-5-yl)-N-phenyl-[1,2,4]triazolo[1,5-a]pyridin-2-amine]

- IC50 [2]: 0.005 to 250 nM
SMILES: C[C@]1(O)CC[C@H](Nc2cccc3nc(Nc4ccc(C(F)(F)F)cc4)nn23)CC1 [Example 384, cis-1-methyl-4-(2-(4-(trifluoromethyl)phenylamino)-[1,2,4]triazolo[1,5-a]pyridin-5-ylamino)cyclohexanol]

- IC50 [1]: 250 to 500 nM
SMILES: c1ccc(Nc2nc3cccc(-c4ccncc4)n3n2)cc1 [Example 528, N-phenyl-5-(pyridin-4-yl)-[1,2,4]triazolo[1,5-a]pyridin-2-amine]

- IC50 [3]: 1000 to 10000 nM
SMILES: c1ccc(-c2cccc3nc(Nc4cncnc4)nn23)cc1 [compound 74, 5-phenyl-N-(pyrimidin-5-yl)-[1,2,4]triazolo[1,5-a]pyridin-2-amine]

- IC50 [1]: 500 to 1000 nM
SMILES: Cc1cc(-c2cccc3nc(Nc4ccccc4)nn23)no1 [Example 473, 5-(5-methylisoxazol-3-yl)-N-phenyl-[1,2,4]triazolo[1,5-a]pyridin-2-amine]

- IC50 [2]: 1000 to 10000 nM
SMILES: FC(F)(F)c1ccc(Nc2nc3cccc(N4CCCC4)n3n2)cc1 [Example 307, 5-(pyrrolidin-1-yl)-N-(4-(trifluoromethyl)phenyl)-[1,2,4]triazolo[1,5-a]pyridin-2-amine]

- IC50 [1]: 1000 to 10000 nM
SMILES: Cc1n[nH]c2ncc(Nc3nc4cccc(NC5CCOCC5)n4n3)cc12 [Example 539, N^2-(3-methyl-1H-pyrazolo[3,4-b]pyridin-5-yl)-N^5-(tetrahydro-2H-pyran-4-yl)-[1,2,4]triazolo[1,5-a]pyridin-2,5-diamine]

- IC50 [1]: 500 to 1000 nM
SMILES: Cc1noc2cc(Nc3nc4cccc(CC5CCOCC5)n4n3)ccc12 [Example 537, 3-methyl-N-(5-((tetrahydro-2H-pyran-4-yl)methyl)-[1,2,4]triazolo[1,5-a]pyridin-2-yl)benzo[d]isoxazol-6-amine]

- IC50 [1]: 0.005 to 250 nM
SMILES: CC1(C)C(=O)Nc2cc(Nc3nc4cccc(C(F)(F)C5CCOCC5)n4n3)ccc21 [Example 536, 6-(5-(difluoro(tetrahydro-2H-pyran-4-yl)methyl)-[1,2,4]triazolo[1,5-a]pyridin-2-ylamino)-3,3-dimethylindolin-2-one]

- IC50 [1]: 250 to 500 nM
SMILES: c1ccc(Nc2nc3cccc(CC4CCCNC4)n3n2)cc1 (centres unmarked) [Example 478, N-phenyl-5-(piperidin-3-ylmethyl)-[1,2,4]triazolo[1,5-a]pyridin-2-amine]

- IC50 [3]: 250 to 500 nM
SMILES: CNC(=O)c1ccc(Nc2nc3cccc(-c4cccc(CCN)c4)n3n2)cc1 [compound 11, 4-(5-(3-(2-aminoethyl)phenyl)-[1,2,4]triazolo[1,5-a]pyridin-2-ylamino)-N-methylbenzamide]

- IC50 [1]: 250 to 500 nM
SMILES: CN(C)c1cc(-c2cccc3nc(Nc4ccccc4)nn23)ccn1 [Example 446, 5-(2-(dimethylamino)pyridin-4-yl)-N-phenyl-[1,2,4]triazolo[1,5-a]pyridin-2-amine]

- IC50 [1]: 0.005 to 250 nM
SMILES: COCc1n[nH]c2cc(Nc3nc4cccc(CN5CCNC(=O)C5)n4n3)ccc12 [Example 533, 4-((2-(3-(methoxymethyl)-1H-indazol-6-ylamino)-[1,2,4]triazolo[1,5-a]pyridin-5-yl)methyl)piperazin-2-one]

- IC50 [1]: 0.005 to 250 nM
SMILES: CNc1nc2cc(-c3cccc4nc(Nc5ccccc5)nn34)ccc2[nH]1 [Example 481, 5-(2-(methylamino)-1H-benzo[d]imidazol-5-yl)-N-phenyl-[1,2,4]triazolo[1,5-a]pyridin-2-amine]

- IC50 [3]: 0.005 to 250 nM
SMILES: c1ccc(-c2cccc3nc(Nc4ccc5[nH]ncc5c4)nn23)cc1 [compound 61]

- IC50 [2]: 0.005 to 250 nM
SMILES: NC(=O)CNCc1cccc2nc(Nc3ccc(C(F)(F)F)cc3)nn12 [Example 290, 2-((2-(4-(trifluoromethyl)phenylamino)-[1,2,4]triazolo[1,5-a]pyridin-5-yl)methylamino)acetamide]

- IC50 [3]: 0.005 to 250 nM
SMILES: CC1(C)C(=O)Nc2cc(Nc3nc4cccc(CC5CCNCC5)n4n3)ccc21 [Example 138, 3,3-dimethyl-6-(5-(piperidin-4-ylmethyl)-[1,2,4]triazolo[1,5-a]pyridin-2-ylamino)indolin-2-one]

- IC50 [1]: 0.005 to 250 nM
SMILES: OC[C@H]1CC[C@@H](Nc2cccc3nc(Nc4ccc(C(F)(F)F)cc4)nn23)CC1 [Example 410, cis-(4-(2-(4-(trifluoromethyl)phenylamino)-[1,2,4]triazolo[1,5-a]pyrridin-5-ylamino)cyclohexyl)methanol]

- IC50 [3]: 0.005 to 250 nM
SMILES: O=c1cc(C(O)c2cccc3nc(Nc4ccc(C(F)(F)F)cc4)nn23)nc[nH]1 (centres unmarked) [Example 193, 6-(hydroxy(2-(4-(trifluoromethyl)phenylamino)-[1,2,4]triazolo[1,5-a]pyridin-5-yl)methyl)pyrimidin-4(3H)-one]

- IC50 [2]: 1000 to 10000 nM
SMILES: O[C@@H]1CCC[C@H](Nc2cccc3nc(Nc4ccc(C(F)(F)F)cc4)nn23)C1 (single isomer, unassigned; enantiomer 1) [Example 223, cis-3-(2-(4-(trifluoromethyl)phenylamino)-[1,2,4]triazolo[1,5-a]pyridin-5-ylamino)cyclohexanol (enantiomer 1)]

- IC50 [2]: 500 to 1000 nM
SMILES: NC(=O)c1ccc(Nc2nc3cccc(N[C@H]4CC[C@@H](O)CC4)n3n2)cn1 [Example 370, cis-5-(5-(4-hydroxycyclohexylamino)-[1,2,4]triazolo[1,5-a]pyridin-2-ylamino)picolinamide]

- IC50 [1]: 0.005 to 250 nM
SMILES: N[C@H]1CC[C@H](Oc2cccc3nc(Nc4ccc(C(F)(F)F)cc4)nn23)CC1 (stereo in doubt) [Example 422, trans-5-(4-aminocyclohexyloxy)-N-(4-(trifluoromethyl)phenyl)-[1,2,4]triazolo[1,5-a]pyridin-2-amine]

- IC50 [2]: 0.005 to 250 nM
SMILES: Cn1ncc2cc(Nc3nc4cccc(N[C@H]5CC[C@@H](O)CC5)n4n3)ccc21 [Example 236, cis-4-(2-(1-methyl-1H-indazol-5-ylamino)-[1,2,4]triazolo[1,5-a]pyridin-5-ylamino)cyclohexanol]
